Assay [1] addresses Cav2.3 dependent current in HEK-293 T-Rex/Kir2.1/Cav2.3e-β4-α2δ1 cells (Homo sapiens, UniProt Q15878). Briefly: Whole-cell patch clamp assay (QPatch 16X). It is filed as cell-based. The settings on record: whole-cell voltage clamp, room temperature, inward current density; mean ± S.E; read-out: Cav2.3 (pIC50) (converted). On the procedure: HEK-293 T-Rex/Kir2.1/Cav2.3e-β4-α2δ1 cells were seeded 96 hours before experiment and doxycycline at 0.2 μg/mL was added 24 hours before experiment. Just before the experiments cells were washed twice with D-PBS w/o Ca2+/Mg2+ and gently detached from the flask with Detachin. Cells were then re-suspended in the suspension solution (25 mL EX-CELL ACF CHO medium; 0.25 mL of 100× Penicillin/Streptomycin) and placed on the Automated Patch-clamp platform (QPatch 16X).
Standard whole-cell voltage clamp experiments were performed at room temperature using the single hole technology and the following intracellular and extracellular solutions (ICS and ECS, respectively) were used. ICS (mM): CsF 60, CsCl 50, NaCl 10, EGTA 20, BAPTA 5, HEPES 10, NaGTP 0.3, MgATP 5 (pH 7.2; ECS (mM): NMDG-Cl 120, BaCl2 20, HEPES 10, EGTA 7 (pH 7.4). After establishment of the seal and the passage in the whole-cell configuration, the Cav2.3 dependent current was evoked by challenging the cells with the following voltage protocol: the plasma membrane was held at −80 mV then a 50 ms-long depolarizing pulse at 0 mV, followed by a 50 ms-long hyperpolarizing pulse at −100 mV were applied and finally the plasma membrane was held back to −80 mV. This voltage protocol was applied every 10 seconds. Cav2.3 dependent current was first measured in control condition (vehicle, 0.1% DMSO), in the presence of increasing concentration of the compound under investigation and finally SNX 482 was added to fully block any R-type Cav2.3 dependent current.
For data collection, the Sophion proprietary software was used while the analysis was performed off-line using Excel and GraphPad Prism. The inward current (Area Under Curve) measured during each depolarizing pulse was normalized to cell membrane capacitance (Cm) to obtain the average inward current density in each condition (control, compound under investigation and SNX 482). Then, the inhibitory effect of the compound under investigation was evaluated as % of the remaining inward current, normalized to the internal control. […] All data were expressed as mean±S.E

For assay [2], the target named is T1, Cav2.3 (Homo sapiens, UniProt Q15878). Briefly: Human Cav2.3 channel calcium-influx assay. It is filed as cell-based. The settings on record: HEK-293 T-Rex/Kir2.1 cells with inducible Cav2.3e-β4-α2δ1; Fluo8 fluorescence; 8-point dose response from 30 μM; no pluronic acid; read-out: Cav2.3 (pIC50) (converted). On the procedure:
HEK-293 T-Rex cells were transfected with pcDNA3.1-Kir2.1 to generate a stable cell line. After antibiotic selection, the obtained stable pools were analysed using FLIPR^TETRA(membrane potential assay), and a limiting dilution was performed and a HEK-293 T-Rex/Kir2.1 clone was selected. The clone was transfected with pcDNA3.1-Cav2.3e and pBud-Cav-β4-α2δ1 to generate a stable cell line where the Cav2.3e expression is inducible. After antibiotic selection, functional clone pool analysis and two successive limiting dilutions, the final clone underwent a qPCR analysis and a biophysical and pharmacological validation using patch-clamp.
A compound plate, containing 10 test compounds in eight-points dose response with n=4, was prepared. Test compounds dose response curves were prepared in automated fashion in 100% DMSO at CyBio Felix and starting from a stock solution in 100% DMSO; a defined volume was serially moved into destination wells pre-filled with the desired DMSO volume; stock solution concentration volumes were dependent on the final compounds concentrations to be tested and the final DMSO content used in the assay. For the assay test compounds dose response curves ranged from 30 μM and half log dilution with 0.3% final DMSO. In order to obtain the 8-points dose response curve all the concentrations were created by starting from a 10 mM DMSO stock solution and then moving 9.5 μL into a destination well pre-filled with 20.5 μL of 100% DMSO and repeating this step seven times. This initial step was done into 96 MTP plates, 10 compounds/plate. One 384 MTP was then reformatted to contain all the 10 compounds at 8 concentrations, quadruplicate data points. This so obtained 384 MTP compound plate served as source plate in a “mother to child” process with a CyBi®-Well dispenser in which 0.7 μL of compounds were moved into a destination plate pre-filled with 57.6 μL of Tyrode's buffer 0 mM K^+, thus obtaining 4× concentrated compounds solution. In columns 1-2 and 23-24 the control wells were added. Both “source” compound plate and “destination” compound plate were barcoded and a relationship between the two plates was thus generated.
The day before the experiment, cells were detached by gentle wash with DPBS, followed by 5 min incubation at 37° C. with Trypsin solution. Detached cells were diluted with OptiMEM+Doxycycline at 0.2 μg/mL, counted and plated in Poly-D-Lysine coated black/clear bottom (15.000 c/well in 20 μl/well) by the use of a MATRIX WellMate dispenser. Plates were placed into a humidified incubator at 37° C. with 5% CO2 until the experimental day. 24 h after seeding 10 μL/well of 1.5× Fluo8 NW dye solution prepared in Tyrode's buffer 0 mM K^+ were added on top of the seeding medium. Cell plates were incubated for 40-60 min at RT in the dark. We then Injected off-line 10 μL/well of test compounds and controls 4× concentrated in Tyrode's Buffer 0 mM K+ with the CyBi®-Well instrument. Cell plates were incubated 3 minutes at RT. Finally, we injected 20 μL/well of 3× concentrated activator solution (K20-Na130-Ca2 buffer: 20 mM KCl, 130 mM NaCl, 2 mM CaCl2, 10 mM HEPES, 10 mM Glucose, final concentrations, prepared starting from “K0-Na150-Ca2” and “K150-Na0-Ca2” buffers) at FDSS7000EX instrument and read emitted fluorescence for 130 seconds.
Data analysis was performed with Genedata Screener® software and reported compounds activity as % effect in relation to the normalization standards. The Kinetic Response Value (KRV) is calculated as follows:
KRV=Maximal fluorescence recorded from second 5 to second 130 minus baseline fluorescence, computed as average from second 1 to second 2, of the kinetic trace. The KRV was normalized versus Neutral Controls and Inhibitor Controls in order to obtain the Activity[%] for each well. […] Therefore, the compound activity values were scaled (based on the two references) to a common range (two-point normalization). […]
Target sequence in this assay (Q15878 1-2270 isoform Q15878-3): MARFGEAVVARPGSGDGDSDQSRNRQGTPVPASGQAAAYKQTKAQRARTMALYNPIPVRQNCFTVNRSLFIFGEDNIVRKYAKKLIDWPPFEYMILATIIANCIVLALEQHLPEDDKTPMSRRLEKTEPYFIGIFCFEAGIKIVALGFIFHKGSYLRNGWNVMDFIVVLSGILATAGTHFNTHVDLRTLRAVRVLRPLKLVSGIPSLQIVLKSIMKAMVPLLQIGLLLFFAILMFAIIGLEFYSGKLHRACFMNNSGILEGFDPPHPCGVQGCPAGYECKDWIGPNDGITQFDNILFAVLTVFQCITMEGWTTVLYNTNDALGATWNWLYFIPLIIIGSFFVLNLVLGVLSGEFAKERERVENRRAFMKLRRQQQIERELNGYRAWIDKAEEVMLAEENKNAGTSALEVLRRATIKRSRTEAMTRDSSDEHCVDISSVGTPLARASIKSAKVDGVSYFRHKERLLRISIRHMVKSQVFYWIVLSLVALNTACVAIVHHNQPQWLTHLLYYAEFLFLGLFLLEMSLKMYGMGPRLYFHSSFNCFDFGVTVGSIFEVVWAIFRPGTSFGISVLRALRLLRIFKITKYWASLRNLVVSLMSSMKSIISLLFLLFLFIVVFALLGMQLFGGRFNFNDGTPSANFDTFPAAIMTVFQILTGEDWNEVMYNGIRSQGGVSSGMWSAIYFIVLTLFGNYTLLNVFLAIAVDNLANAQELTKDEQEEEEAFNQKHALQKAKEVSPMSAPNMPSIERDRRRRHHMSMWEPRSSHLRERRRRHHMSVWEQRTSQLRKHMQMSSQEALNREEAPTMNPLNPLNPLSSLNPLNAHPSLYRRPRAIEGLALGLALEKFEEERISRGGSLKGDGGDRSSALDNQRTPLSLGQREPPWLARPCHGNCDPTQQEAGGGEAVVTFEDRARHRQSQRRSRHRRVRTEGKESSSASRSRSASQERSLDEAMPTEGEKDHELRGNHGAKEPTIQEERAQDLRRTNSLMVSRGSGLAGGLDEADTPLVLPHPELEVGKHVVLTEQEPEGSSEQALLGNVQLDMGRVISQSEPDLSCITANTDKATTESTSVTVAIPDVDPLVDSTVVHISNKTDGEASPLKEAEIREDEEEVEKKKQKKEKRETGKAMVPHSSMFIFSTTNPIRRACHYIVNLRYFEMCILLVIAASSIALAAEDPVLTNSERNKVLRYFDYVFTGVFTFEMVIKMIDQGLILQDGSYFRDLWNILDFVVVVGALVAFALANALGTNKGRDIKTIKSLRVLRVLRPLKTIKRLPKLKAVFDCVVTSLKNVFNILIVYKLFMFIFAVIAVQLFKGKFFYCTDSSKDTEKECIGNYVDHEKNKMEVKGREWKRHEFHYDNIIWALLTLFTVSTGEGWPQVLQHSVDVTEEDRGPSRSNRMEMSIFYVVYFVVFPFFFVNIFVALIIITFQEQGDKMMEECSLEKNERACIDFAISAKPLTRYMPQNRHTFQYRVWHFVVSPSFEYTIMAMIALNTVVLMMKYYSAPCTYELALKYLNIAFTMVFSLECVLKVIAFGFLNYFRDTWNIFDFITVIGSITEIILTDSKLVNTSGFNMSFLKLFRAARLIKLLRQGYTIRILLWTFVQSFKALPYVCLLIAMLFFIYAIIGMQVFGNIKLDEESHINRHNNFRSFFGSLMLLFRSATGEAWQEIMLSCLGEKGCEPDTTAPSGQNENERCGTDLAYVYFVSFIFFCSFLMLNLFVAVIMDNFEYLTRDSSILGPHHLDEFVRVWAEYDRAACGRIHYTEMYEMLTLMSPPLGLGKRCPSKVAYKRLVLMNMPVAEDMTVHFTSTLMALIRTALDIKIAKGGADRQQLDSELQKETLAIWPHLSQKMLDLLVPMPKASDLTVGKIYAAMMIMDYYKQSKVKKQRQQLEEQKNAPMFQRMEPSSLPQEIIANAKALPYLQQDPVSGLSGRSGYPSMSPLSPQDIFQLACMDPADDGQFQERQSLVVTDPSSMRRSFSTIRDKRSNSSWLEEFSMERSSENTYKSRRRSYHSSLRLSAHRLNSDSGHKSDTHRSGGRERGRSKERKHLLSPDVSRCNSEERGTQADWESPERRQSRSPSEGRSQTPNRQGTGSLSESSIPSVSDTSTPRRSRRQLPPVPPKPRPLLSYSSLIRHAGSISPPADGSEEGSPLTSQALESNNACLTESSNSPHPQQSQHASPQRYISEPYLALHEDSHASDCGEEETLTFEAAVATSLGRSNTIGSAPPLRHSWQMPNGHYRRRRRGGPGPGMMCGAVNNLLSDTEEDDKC

The target in assay [3] is T1, Cav2.3. As to conditions: read-out: IC50 against Cav2.3; cited from earlier work.
Target sequence in this assay (Q15878 whole entry): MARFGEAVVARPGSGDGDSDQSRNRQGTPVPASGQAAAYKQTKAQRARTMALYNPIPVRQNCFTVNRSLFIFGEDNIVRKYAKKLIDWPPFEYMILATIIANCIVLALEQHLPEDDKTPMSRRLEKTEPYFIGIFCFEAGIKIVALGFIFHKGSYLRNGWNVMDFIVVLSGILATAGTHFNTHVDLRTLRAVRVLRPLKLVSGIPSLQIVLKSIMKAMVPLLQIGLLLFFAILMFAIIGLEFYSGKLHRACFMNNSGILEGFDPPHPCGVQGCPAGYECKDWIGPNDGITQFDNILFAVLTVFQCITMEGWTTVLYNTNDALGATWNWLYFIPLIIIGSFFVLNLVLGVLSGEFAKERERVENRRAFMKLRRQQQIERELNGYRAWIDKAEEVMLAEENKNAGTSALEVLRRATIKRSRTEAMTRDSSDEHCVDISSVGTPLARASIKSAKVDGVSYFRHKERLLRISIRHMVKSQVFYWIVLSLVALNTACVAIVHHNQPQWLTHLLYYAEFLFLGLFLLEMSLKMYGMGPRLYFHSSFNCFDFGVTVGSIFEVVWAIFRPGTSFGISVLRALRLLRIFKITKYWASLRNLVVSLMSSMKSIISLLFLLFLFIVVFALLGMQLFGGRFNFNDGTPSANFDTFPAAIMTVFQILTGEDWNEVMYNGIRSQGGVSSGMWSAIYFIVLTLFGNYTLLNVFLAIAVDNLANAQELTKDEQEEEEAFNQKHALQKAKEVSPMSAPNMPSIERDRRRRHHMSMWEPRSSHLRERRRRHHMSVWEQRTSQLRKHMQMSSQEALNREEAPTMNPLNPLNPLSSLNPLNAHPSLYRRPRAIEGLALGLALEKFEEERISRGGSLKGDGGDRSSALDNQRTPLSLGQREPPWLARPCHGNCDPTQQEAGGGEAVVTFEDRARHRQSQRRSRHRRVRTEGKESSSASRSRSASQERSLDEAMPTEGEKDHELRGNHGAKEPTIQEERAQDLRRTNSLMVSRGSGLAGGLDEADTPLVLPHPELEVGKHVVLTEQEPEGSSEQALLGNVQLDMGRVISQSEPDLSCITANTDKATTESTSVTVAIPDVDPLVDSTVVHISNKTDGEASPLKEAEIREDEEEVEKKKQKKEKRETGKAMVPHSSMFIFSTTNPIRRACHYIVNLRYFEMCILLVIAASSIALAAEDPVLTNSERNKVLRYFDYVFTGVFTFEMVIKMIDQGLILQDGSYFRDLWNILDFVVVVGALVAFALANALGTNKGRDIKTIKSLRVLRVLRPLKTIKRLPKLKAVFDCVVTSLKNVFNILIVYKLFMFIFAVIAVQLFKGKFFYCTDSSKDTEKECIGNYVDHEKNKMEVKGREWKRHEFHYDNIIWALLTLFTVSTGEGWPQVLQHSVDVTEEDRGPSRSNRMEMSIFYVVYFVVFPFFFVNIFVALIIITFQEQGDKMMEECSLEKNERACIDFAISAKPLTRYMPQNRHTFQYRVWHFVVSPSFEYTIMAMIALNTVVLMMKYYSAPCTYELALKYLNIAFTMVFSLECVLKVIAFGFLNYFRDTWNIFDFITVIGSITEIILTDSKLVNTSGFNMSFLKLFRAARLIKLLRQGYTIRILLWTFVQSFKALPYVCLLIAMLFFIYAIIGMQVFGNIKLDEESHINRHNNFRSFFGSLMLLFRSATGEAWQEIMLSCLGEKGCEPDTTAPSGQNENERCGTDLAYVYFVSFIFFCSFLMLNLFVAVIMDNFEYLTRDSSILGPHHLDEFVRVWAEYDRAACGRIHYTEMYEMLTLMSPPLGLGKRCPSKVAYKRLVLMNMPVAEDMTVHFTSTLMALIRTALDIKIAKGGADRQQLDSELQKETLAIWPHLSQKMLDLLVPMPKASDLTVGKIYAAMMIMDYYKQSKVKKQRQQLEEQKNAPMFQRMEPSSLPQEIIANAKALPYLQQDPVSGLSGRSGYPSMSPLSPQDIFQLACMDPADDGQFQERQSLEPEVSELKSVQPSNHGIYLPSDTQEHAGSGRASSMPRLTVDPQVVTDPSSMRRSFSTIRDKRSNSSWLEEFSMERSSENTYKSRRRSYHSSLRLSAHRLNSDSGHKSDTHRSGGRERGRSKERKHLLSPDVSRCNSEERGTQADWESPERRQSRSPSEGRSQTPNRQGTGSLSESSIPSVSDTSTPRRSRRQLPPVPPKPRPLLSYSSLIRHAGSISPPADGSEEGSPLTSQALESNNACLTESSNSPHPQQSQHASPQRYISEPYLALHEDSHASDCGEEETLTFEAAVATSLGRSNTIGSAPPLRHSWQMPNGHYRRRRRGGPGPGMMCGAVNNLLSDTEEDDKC

Consider 15 molecules from patent US20250136552A1, “ANTAGONISTS OF CAV 2.3” (LARIO THERAPEUTICS LIMITED, priority 2021, published 2025).

Where two headings read alike, the source gives them in different places.

Chain of Cav2.3 dependent current in HEK-293 T-Rex/Kir2.1/Cav2.3e-β4-α2δ1 cells (Q15878 1-2270 isoform Q15878-3): as the sequence (Q15878 1-2270 isoform Q15878-3) above

For the molecule `CCN([C@H](c1ccc(F)cc1)C(F)(F)F)S(=O)(=O)c1ccc2c(c1)CN(C(=O)C(C)C)CC2` (stereo in doubt) [Example 6, N-ethyl-2-isobutyryl-N-(2,2,2-trifluoro-1-(4-fluorophenyl)ethyl)-1,2,3,4-tetrahydroisoquinoline-7-sulfonamide], the IC50 in assay [1] is 87.1 nM; on Cav2.3 [2], 398 nM. For `CCN([C@@H](C)c1ccc(C(F)(F)F)cc1)S(=O)(=O)c1ccc2c(c1)CN(C(=O)C(C)C)CC2` [Example 1, (S)-N-ethyl-2-isobutyryl-N-(1-(4-(trifluoromethyl)phenyl)ethyl)-1,2,3,4-tetrahydroisoquinoline-7-sulfonamide], in that order: 251 nM and 661 nM. For `CC(C)C(=O)N1CCc2ccc(S(=O)(=O)N(C)[C@H](c3ccc(F)cc3)C(F)(F)F)cc2C1` [Example 9, (R)-2-isobutyryl-N-methyl-N-(2,2,2-trifluoro-1-(4-fluorophenyl)ethyl)-1,2,3,4-tetrahydroisoquinoline-7-sulfonamide], in that order: 525 nM and 676 nM. As for `CCN([C@@H](C)c1ccc(F)cc1)S(=O)(=O)c1ccc2c(c1)CN(C(=O)C(C)C)CC2` [Example 12, (S)-N-ethyl-N-(1-(4-fluorophenyl)ethyl)-2-isobutyryl-1,2,3,4-tetrahydroisoquinoline-7-sulfonamide], the IC50 in assay [1] was 93.3 nM; at Cav2.3 [2], 537 nM. For `CCN([C@@H](C)c1ccccc1)S(=O)(=O)c1ccc2c(c1)CN(C(=O)C1CC1)CC2` [Example 14, (S)-2-(cyclopropanecarbonyl)-N-ethyl-N-(1-phenylethyl)-1,2,3,4-tetrahydroisoquinoline-7-sulfonamide], in that order: 1120 nM and 724 nM.

Consider `CCN([C@@H](C)c1ccc(C(F)(F)F)cc1)S(=O)(=O)c1ccc2c(c1)CCN(C(=O)C(C)C)C2` [Example 20, (S)-N-ethyl-2-isobutyryl-N-(1-(4-(trifluoromethyl)phenyl)ethyl)-1,2,3,4-tetrahydroisoquinoline-6-sulfonamide], for which the values for the IC50 (in assay [1]; on Cav2.3 [2]) were 372 nM and 1580 nM, respectively. With `CCN(C(c1ccc(F)cc1)C(F)(F)F)S(=O)(=O)c1ccc2c(c1)CN(C(=O)C1COC1)CC2` (stereo not shown) [Example 44, N-ethyl-2-(oxetane-3-carbonyl)-N-(2,2,2-trifluoro-1-(4-fluorophenyl)ethyl)-1,2,3,4-tetrahydroisoquinoline-7-sulfonamide], the IC50 at Cav2.3 [2] was 2040 nM. Still for that read-out and setting: the same measure for `CCN(C(c1ccc(F)cc1)C(F)(F)F)S(=O)(=O)c1ccc2c(c1)CN(C1COC1)CC2` (stereo not shown) [Example 45, N-ethyl-2-(oxetan-3-yl)-N-(2,2,2-trifluoro-1-(4-fluorophenyl)ethyl)-1,2,3,4-tetrahydroisoquinoline-7-sulfonamide]: 525 nM; for `CCN(C(c1ccc(F)cc1)C(F)(F)F)S(=O)(=O)c1ccc2c(c1)CN(C(=O)C1CC1)CC2` (stereo not shown) [Example 46, 2-(Cyclopropanecarbonyl)-N-ethyl-N-(2,2,2-trifluoro-1-(4-fluorophenyl)ethyl)-1,2,3,4-tetrahydroisoquinoline-7-sulfonamide]: 316 nM; for `CCN([C@@H](c1ccc(F)cc1)C(F)(F)F)S(=O)(=O)c1ccc2c(c1)CN(C(=O)C1CC1)CC2` [Example 47, (S)-2-(Cyclopropanecarbonyl)-N-ethyl-N-(2,2,2-trifluoro-1-(4-fluorophenyl)ethyl)-1,2,3,4-tetrahydroisoquinoline-7-sulfonamide]: 4570 nM. Consider `CCN([C@H](c1ccc(F)cc1)C(F)(F)F)S(=O)(=O)c1ccc2c(c1)CN(C(=O)C1CC1)CC2` [Example 48, (R)-2-(Cyclopropanecarbonyl)-N-ethyl-N-(2,2,2-trifluoro-1-(4-fluorophenyl)ethyl)-1,2,3,4-tetrahydroisoquinoline-7-sulfonamide], for which, at Cav2.3 [2], the IC50 was 427 nM.

Regarding `CC(C)C(=O)N1CCc2ccc(S(=O)(=O)N(CCF)C(c3ccc(F)cc3)C(F)(F)F)cc2C1` (stereo not shown) [Example 49, N-(2-fluoroethyl)-2-isobutyryl-N-(2,2,2-trifluoro-1-(4-fluorophenyl)ethyl)-1,2,3,4-tetrahydroisoquinoline-7-sulfonamide], the IC50 in assay [1] is 204 nM; on Cav2.3 [2] it was 513 nM. As for `CC(C)C(=O)N1CCc2ccc(S(=O)(=O)N(CCF)[C@@H](c3ccc(F)cc3)C(F)(F)F)cc2C1` [Example 50, (S)-N-(2-fluoroethyl)-2-isobutyryl-N-(2,2,2-trifluoro-1-(4-fluorophenyl)ethyl)-1,2,3,4-tetrahydroisoquinoline-7-sulfonamide], at Cav2.3 [2], the IC50 is 3310 nM. Turning to `CC(C)C(=O)N1CCc2ccc(S(=O)(=O)N(CCF)[C@H](c3ccc(F)cc3)C(F)(F)F)cc2C1` [Example 51, (R)-N-(2-fluoroethyl)-2-isobutyryl-N-(2,2,2-trifluoro-1-(4-fluorophenyl)ethyl)-1,2,3,4-tetrahydroisoquinoline-7-sulfonamide], at Cav2.3 [2], the IC50 was 417 nM. Take “SNX-482 (GVDKAGCRYMFGGCSVNDDCCPRLGCHSLFSYCAWDLTFSD; UniProt P56854 1-41, looked up)”: in the assay with Cav2.3 [3], the IC50 is 15 to 30 nM.
